From patent US12084436B2, “Heterocyclic compound” (Takeda Pharmaceutical Company Limited, priority 2019, dated 2024)

Target: T1, HDAC6 enzyme (Homo sapiens, UniProt Q9UBN7)
T1 construct: prepared by transducing full length HDAC6 gene into Sf-9 insect cells; GST; purchased SignalChem; host or cells: Sf-9 insect cells
T1 sequence (Q9UBN7 1-1215): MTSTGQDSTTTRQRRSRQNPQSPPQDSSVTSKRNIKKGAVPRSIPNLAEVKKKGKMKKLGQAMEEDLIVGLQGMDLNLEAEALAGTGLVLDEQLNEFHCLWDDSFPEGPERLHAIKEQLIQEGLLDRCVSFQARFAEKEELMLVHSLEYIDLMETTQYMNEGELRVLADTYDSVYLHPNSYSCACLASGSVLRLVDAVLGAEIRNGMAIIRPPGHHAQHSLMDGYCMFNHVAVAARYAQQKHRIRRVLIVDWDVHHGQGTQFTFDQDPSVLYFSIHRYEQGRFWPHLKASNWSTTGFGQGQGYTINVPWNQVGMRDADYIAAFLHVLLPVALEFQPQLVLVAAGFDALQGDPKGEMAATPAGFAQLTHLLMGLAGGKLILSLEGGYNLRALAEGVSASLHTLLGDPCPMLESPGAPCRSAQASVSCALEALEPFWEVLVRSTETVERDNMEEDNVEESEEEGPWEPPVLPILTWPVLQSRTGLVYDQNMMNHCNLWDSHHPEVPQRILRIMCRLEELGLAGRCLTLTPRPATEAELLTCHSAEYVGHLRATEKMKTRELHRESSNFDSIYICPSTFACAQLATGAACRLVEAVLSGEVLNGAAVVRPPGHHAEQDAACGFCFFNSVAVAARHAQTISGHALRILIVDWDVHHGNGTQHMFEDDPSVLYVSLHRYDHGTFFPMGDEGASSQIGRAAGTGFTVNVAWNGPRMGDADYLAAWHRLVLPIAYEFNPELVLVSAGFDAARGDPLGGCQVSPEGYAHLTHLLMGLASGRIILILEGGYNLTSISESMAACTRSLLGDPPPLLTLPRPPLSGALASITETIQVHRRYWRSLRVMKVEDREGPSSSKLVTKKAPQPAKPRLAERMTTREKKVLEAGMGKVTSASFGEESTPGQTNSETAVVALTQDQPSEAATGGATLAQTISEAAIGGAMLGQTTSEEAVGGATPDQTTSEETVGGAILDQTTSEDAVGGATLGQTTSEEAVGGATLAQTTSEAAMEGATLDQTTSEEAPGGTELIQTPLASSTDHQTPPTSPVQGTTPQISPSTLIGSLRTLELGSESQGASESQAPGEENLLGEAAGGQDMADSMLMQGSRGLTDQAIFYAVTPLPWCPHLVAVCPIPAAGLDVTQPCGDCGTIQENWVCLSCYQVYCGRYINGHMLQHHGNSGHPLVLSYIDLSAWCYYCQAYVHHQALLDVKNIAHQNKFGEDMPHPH
Experiment: HDAC6 enzyme inhibitory assay (HDAC-Glo I/II Assay kit, luminescence)
Assay type: biochemical
Settings: 10 μM test compound; wells without enzyme = 100% inhibition; read-out: HDAC6 inhibitory rate (%) (10 μM)
Method: HDAC6 Enzyme Inhibitory Assay
HDAC6 enzyme prepared by transducing full length HDAC6 gene into Sf-9 insect cells and purifying by GST affinity column were purchased from SignalChem. Using this enzyme, HDAC6 enzyme inhibitory activities of the compound of the present invention were evaluated. Enzymes were used after preserved at −70° C. HDAC6 enzyme inhibitory activity of the compound of the present invention was measured using HDAC-Glo™ I/II Assay kit (Promega) according to the following experimental method. The test compound diluted with assay buffer (24 mM Tris-HCl (pH 7.5), 1 mM MgCl2, 0.35 mM KCl, 135 mM NaCl, 0.6 mM Glutathione, 0.01% Tween-20) was added to a 384-well plate by each 2 μL. Then, HDAC6 enzyme solution diluted with assay buffer was added thereto by each 4 μL, and the plate was incubated at room temperature for 60 min. After incubated, HDAC substrate-Developer solution prepared according to Promega protocol attached to the assay kit was added to the 384-well plate by each 2 μL, and the enzyme reaction was started. After reacting at room temperature for 20 min, luminescence level was measured using plate reader Envision (PerkinElmer). The inhibitory activity of each compound of Example was calculated as a relative activity value when luminescence level in wells without enzyme is considered as 100% inhibition.

Row | Compound | inhibition at 10 µM
1 | CC1(COc2cccnc2-c2cc(F)cc(-c3nnc(C(F)F)o3)c2)COC1 [Example 18a] | 98%
2 | Fc1cc(-c2nnc(C(F)F)o2)cc(-c2ncccc2OCc2ccccc2)c1 [Example 5a, 3-(benzyloxy)-2-{3-[5-(difluoromethyl)-1,3,4-oxadiazol-2-yl]-5-fluorophenyl}pyridine] | 98%
3 | Fc1cc(-c2nnc(C(F)F)o2)cc(-c2nccn2Cc2cccnc2)c1 [Example 49a] | 99%
4 | CN(C(=O)OC(C)(C)C)N1Cc2ccc(-c3nnc(C(F)F)o3)cc2C1=O [Example 38c, tert-butyl {6-[5-(difluoromethyl)-1,3,4-oxadiazol-2-yl]-1-oxo-1,3-dihydro-2H-isoindol-2-yl}methylcarbamate] | 97%
5 | Fc1cc(-c2nnc(C(F)F)o2)cc(-c2ncccc2OCC2CCOCC2)c1 [Example 7a, 2-{3-[5-(difluoromethyl)-1,3,4-oxadiazol-2-yl]-5-fluorophenyl]-3-[(oxan-4-yl)methoxy]pyridine] | 100%
6 | COC(=O)N(Cc1ccc(F)cc1)N1Cc2ccc(-c3nnc(C(F)F)o3)cc2C1=O [Example 1c, methyl {6-[5-(difluoromethyl)-1,3,4-oxadiazol-2-yl]-1-oxo-1,3-dihydro-2H-isoindol-2-yl}[(4-fluorophenyl)methyl]carbamate] | 99%
7 | CN1CCC(COc2cccnc2-c2cc(F)cc(-c3nnc(C(F)F)o3)c2)CC1=O (stereo not drawn) [Example 14a, 4-{[(2-{3-[5-(difluoromethyl)-1,3,4-oxadiazol-2-yl]-5-fluorophenyl}pyridin-3-yl)oxy]methyl}-1-methylpiperidin-2-one] | 97%
8 | Fc1cc(-c2nnc(C(F)F)o2)cc(-c2nccn2CC2CCCOC2)c1 (stereo not drawn) [Example 29a, 2-(difluoromethyl)-5-(3-fluoro-5-{1-[(oxan-3-yl)methyl]-1H-imidazol-2-yl}phenyl)-1,3,4-oxadiazole] | 99%
9 | Fc1cc(-c2nnc(C(F)F)o2)cc(-c2nccn2Cc2cccc(Cl)c2)c1 [Example 21a, 2-(3-[1-[(3-chlorophenyl)methyl]-1H-imidazol-2-yl}-5-fluorophenyl)-5-(difluoromethyl)-1,3,4-oxadiazole] | 93%
10 | CN1C(=O)c2cc(-c3nnc(C(F)F)o3)ccc2CC1c1ccc(F)cc1 (stereo not drawn) [Example 33b, 7-[5-(difluoromethyl)-1,3,4-oxadiazol-2-yl]-3-(4-fluorophenyl)-2-methyl-3,4-dihydroisoquinolin-1(2H)-one] | 100%
11 | CNC(=O)c1ccc(Cn2ccnc2-c2cc(F)cc(-c3nnc(C(F)F)o3)c2)cc1F [Example 34a, 4-[(2-{3-[5-(difluoromethyl)-1,3,4-oxadiazol-2-yl]-5-fluorophenyl}-1H-imidazol-1-yl)methyl]-2-fluoro-N-methylbenzamide] | 98%
12 | O=C(OCC(F)F)N(Cc1ccc(F)cc1)N1Cc2ccc(-c3nnc(C(F)F)o3)cc2C1=O [Example 16c, 2,2-difluoroethyl {6-[5-(difluoromethyl)-1,3,4-oxadiazol-2-yl]-1-oxo-1,3-dihydro-2H-isoindol-2-yl}[(4-fluorophenyl)methyl]carbamate] | 100%
13 | O=C1c2cc(-c3nnc(C(F)F)o3)ccc2CN1NC1CCOCC1 [Example 34c, 6-[5-(difluoromethyl)-1,3,4-oxadiazol-2-yl]-2-[(oxan-4-yl)amino]-2,3-dihydro-1H-isoindol-1-one] | 92%
14 | Fc1cc(-c2nnc(C(F)F)o2)cc(-c2nccn2Cc2ccccn2)c1 [Example 6a] | 99%
15 | FC(F)c1nnc(-c2ccnc(-c3nccn3Cc3ccccc3)c2)o1 [Example 36a, 2-(1-benzyl-1H-imidazol-2-yl)-4-[5-(difluoromethyl)-1,3,4-oxadiazol-2-yl]pyridine] | 101%
16 | O=C1c2cc(-c3nnc(C(F)F)o3)ccc2CN1Nc1ccc(F)cn1 [Example 39c, 6-[5-(difluoromethyl)-1,3,4-oxadiazol-2-yl]-2-[(5-fluoropyridin-2-yl)amino]-2,3-dihydro-1H-isoindol-1-one] | 88%
17 | CN1C(=O)c2cc(-c3nnc(C(F)F)o3)ccc2CC1(C)c1ccc(F)cc1 (stereo not drawn) [Example 13b, 7-[5-(difluoromethyl)-1,3,4-oxadiazol-2-yl]-3-(4-fluorophenyl)-2,3-dimethyl-3,4-dihydroisoquinolin-1(2H)-one] | 99%

The remaining lines, values ahead:

Row | inhibition at 10 µM | Compound
18 | 100% | CN(CC1CCC(F)(F)CC1)N1Cc2ccc(-c3nnc(C(F)F)o3)cc2C1=O [Example 62c, 2-{[(4,4-difluorocyclohexyl)methyl](methyl)amino}-6-[5-(difluoromethyl)-1,3,4-oxadiazol-2-yl]-2,3-dihydro-1H-isoindol-1-one]
19 | 101% | CN(Cc1ccccc1C(F)F)N1Cc2ccc(-c3nnc(C(F)F)o3)cc2C1=O [Example 65c, 6-[5-(difluoromethyl)-1,3,4-oxadiazol-2-yl]-2-[{[2-(difluoromethyl)phenyl]methyl} (methyl)amino]-2,3-dihydro-1H-isoindol-1-one]
20 | 101% | CN(Cc1cccc(-c2cnccn2)c1)N1Cc2ccc(-c3nnc(C(F)F)o3)cc2C1=O [Example 53c, 6-[5-(difluoromethyl)-1,3,4-oxadiazol-2-yl]-2-(methyl{[3-(pyrazin-2-yl)phenyl]methyl}amino)-2,3-dihydro-1H-isoindol-1-one]
21 | 100% | O=C1c2cc(-c3nnc(C(F)F)o3)cnc2CN1N(Cc1ccc(F)cc1)CC1CCOCC1 [Example 71c, 3-[5-(difluoromethyl)-1,3,4-oxadiazol-2-yl]-6-{[(4-fluorophenyl)methyl][(oxan-4-yl)methyl]amino}-6,7-dihydro-5H-pyrrolo[3,4-b]pyridin-5-one]
22 | 98% | COc1cncc(Cn2ccnc2-c2cc(F)cc(-c3nnc(C(F)F)o3)c2)n1 [Example 58a, 2-[(2-{3-[5-(difluoromethyl)-1,3,4-oxadiazol-2-yl]-5-fluorophenyl}-1H-imidazol-1-yl)methyl]-6-methoxypyrazine]
23 | 100% | FC(F)c1nnc(-c2ccnc(-c3nccn3Cc3cncc(Cl)c3)c2)o1 [Example 93a, 2-{1-[(5-chloropyridin-3-yl)methyl]-1H-imidazol-2-yl}-4-[5-(difluoromethyl)-1,3,4-oxadiazol-2-yl]pyridine]
24 | 99% | Fc1cccc(Cc2ccnn2-c2cc(-c3nnc(C(F)F)o3)ccn2)c1 [Example 87a, 4-[5-(difluoromethyl)-1,3,4-oxadiazol-2-yl]-2-{5-[(3-fluorophenyl)methyl]-1H-pyrazol-1-yl}pyridine]
25 | 98% | Fc1cccc(Cc2cncnc2-c2cc(-c3nnc(C(F)F)o3)ccn2)c1 [Example 90a, 4-{4-[5-(difluoromethyl)-1,3,4-oxadiazol-2-yl]pyridin-2-yl}-5-[(3-fluorophenyl)methyl]pyrimidine]
26 | 89% | Cc1nnc(Cn2ccnc2-c2cc(F)cc(-c3nnc(C(F)F)o3)c2)o1 [Example 54a, 2-(difluoromethyl)-5-(3-fluoro-5-{1-[(5-methyl-1,3,4-oxadiazol-2-yl)methyl]-1H-imidazol-2-yl}phenyl)-1,3,4-oxadiazole]
27 | 97% | Cc1nc(Cn2ccnc2-c2cc(F)cc(-c3nnc(C(F)F)o3)c2)co1 [Example 57a, 2-(difluoromethyl)-5-(3-fluoro-5-{1-[(2-methyl-1,3-oxazol-4-yl)methyl]-1H-imidazol-2-yl}phenyl)-1,3,4-oxadiazole]
